In US20230117920A1, “Library Construction Method, Cyclic Peptide, FXIIa Binder and IFNGR1 Binder” (The University of Tokyo, priority 2019, published 2023) one finds kon, kd and Ki data, which are given here for two molecules.

Positions of bridges follow the written chain, without caps; N, C: chain ends. Non-standard residues stand in square brackets, D forms with d. Residues, ends and D or L forms follow the SMILES beside them.

Assay [1] addresses T1, interferon γ receptor 1 (IFNGR1) (Homo sapiens, UniProt P15260). Put plainly: biochemical. The settings on record: read-out: ka.
Assay [2] concerns the target T1, interferon γ receptor 1 (IFNGR1). The settings on record: SPR, 25° C., 1:1 interaction model.
Target sequence in this assay (P15260 18-245 limits assumed): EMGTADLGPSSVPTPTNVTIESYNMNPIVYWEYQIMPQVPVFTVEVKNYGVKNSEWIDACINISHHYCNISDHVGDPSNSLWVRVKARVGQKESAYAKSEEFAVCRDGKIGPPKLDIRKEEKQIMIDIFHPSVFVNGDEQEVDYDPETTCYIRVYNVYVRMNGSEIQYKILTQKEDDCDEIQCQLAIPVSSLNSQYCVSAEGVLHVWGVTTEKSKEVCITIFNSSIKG
Method: Recombinant biotinylated human FXIIa was purchased from Molecular Innovations. The recombinant human IgG1 Fc and Fc labeled human IFNGR1 were purchased from R&D systems and AcroBiosystems, respectively.
The binding kinetics of those peptides to FXIIA and IFNGR1 was analyzed by surface plasmon resonance. […] The binding affinity was analyzed at 25° C. by SPR by using a Biacore T200 apparatus (GE Healthcare). The peptides, each used at five different concentrations, were injected at a floe rate of 30 μL/min and the rate constant was measured by single cycle kinetics method. The binding sensorgrams thus obtained were analyzed using a Biacore evaluation software and was fitted to a standard 1:1 interaction model.
For a further assay, the target named is FXIIa (Homo sapiens, UniProt P00748). The note with it: reference protein inhibitor against FXIIa; cited from earlier work.
Sequence of FXIIa (P00748 373-615 limits assumed, other chains not shown): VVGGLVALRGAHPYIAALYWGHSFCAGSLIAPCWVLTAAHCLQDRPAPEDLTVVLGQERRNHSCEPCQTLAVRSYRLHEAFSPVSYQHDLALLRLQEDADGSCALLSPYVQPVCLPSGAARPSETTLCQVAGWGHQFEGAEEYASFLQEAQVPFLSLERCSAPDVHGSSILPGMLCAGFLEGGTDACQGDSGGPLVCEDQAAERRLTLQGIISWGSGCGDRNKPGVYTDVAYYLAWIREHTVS

`CC(C)[C@@H]1NC(=O)CNC(=O)[C@H](Cc2ccccc2)NC(=O)[C@@H](Cc2ccc(O)cc2)NC(=O)CSC[C@H](C(N)=O)NC(=O)[C@H]([C@@H](C)O)NC(=O)[C@H](CCCNC(=N)N)NC(=O)[C@H](CC(N)=O)NC(=O)[C@H](Cc2ccc(O)cc2)NC(=O)[C@H](Cc2ccccc2)NC(=O)[C@H](C)NC(=O)[C@H](CCCNC(=N)N)NC1=O` [I1-1A] ({CH2CO}-[dY]FGVRAFYNRT[dC]-NH2; thioether N-12): the kon in assay [1] was 20000 M⁻¹ s⁻¹. Further, the kd in assay [2] is reported as 4.12 10^−2 · s^−1.
Broadly, the Ki is a measure of affinity in units of concentration, obtained from inhibition or displacement. corn trypsin inhibitor [CTI]: on FXIIa, the Ki was 24 nM.
